# pIC50: −log10 of the molar value. Where two headings read alike, the source gives them in different places.
# System: 134 cancer cell lines
# Assay: Cell viability assay (ATPlite, 72 hours), IC50 on cancer cell line panel
structure (smiles),measurement,setting,value
CO[C@]1(C(=O)N[C@@H](C)c2ccc(-n3cc(F)cn3)nc2)CC[C@H](c2nc(C)cc(Nc3cc(C)[nH]n3)n2)CC1 [pralsetinib],pIC50,"Homo sapiens, MOLT-4, read-out: IC50 in cell proliferation assay, MOLT-4 cell line",5.03
same,pIC50,"Homo sapiens, MV4-11, read-out: IC50 in cell proliferation assay, MV4-11 cell line (FLT3 ITD)",7.06
same,pIC50,"Homo sapiens, MeWo, read-out: IC50 in cell proliferation assay, MeWo cell line",5.16
same,pIC50,"Homo sapiens, NCCIT, read-out: IC50 in cell proliferation assay, NCC-IT cell line",5.78
same,pIC50,"Homo sapiens, NCI-H82, read-out: IC50 in cell proliferation assay, cell line NCI-H82",4.96
same,pIC50,"Homo sapiens, NCI-H460, read-out: IC50 in cell proliferation assay, NCI-H460 cell line",5.03
same,pIC50,"Homo sapiens, NCI-H661, read-out: IC50 in cell proliferation assay, NCI-H661 cell line",5.68
same,pIC50,"Homo sapiens, NCI-H716, read-out: IC50 in cell proliferation assay, cell line NCI-H716 (FGFR2-COL14A1)",6.61
same,pIC50,"Homo sapiens, NCI-H1650, read-out: IC50 in cell proliferation assay, NCI-H1650 cell line (EGFR exon19del)",5.59
same,pIC50,"Homo sapiens, NCI-H1975, read-out: IC50 in cell proliferation assay, NCI-H1975 cell line (EGFR p.L858R + p.T790M)",5.19
same,pIC50,"Homo sapiens, NCI-H2228, read-out: IC50 in cell proliferation assay, NCI-H2228 cell line (EML4-ALK)",5.10
same,pIC50,"Homo sapiens, OVCAR-3, read-out: IC50 in cell proliferation assay, cell line OVCAR-3",5.39
same,pIC50,"Homo sapiens, PFSK-1, read-out: IC50 in cell proliferation assay, cell line PFSK-1",4.78
same,pIC50,"Homo sapiens, RL95-2, read-out: IC50 in cell proliferation assay, cell line RL95-2 (EGFR p.A289V)",5.86
same,pIC50,"Homo sapiens, RPMI-7951, read-out: IC50 in cell proliferation assay, cell line RPMI-7951 (BRAF p.V600E)",5.55
same,pIC50,"Homo sapiens, RS4-11, read-out: IC50 in cell proliferation assay, cell line RS4;11",4.83
same,pIC50,"Homo sapiens, Rec1, read-out: IC50 in cell proliferation assay, cell line REC-1",5.18
same,pIC50,"Homo sapiens, SHP77, read-out: IC50 in cell proliferation assay, cell line SHP-77",< 4.50
same,pIC50,"Homo sapiens, SK-BR-3, read-out: IC50 in cell proliferation assay, cell line SK-BR-3 (ERBB2 amplification)",5.41
same,pIC50,"Homo sapiens, SK-N-AS, read-out: IC50 in cell proliferation assay, cell line SK-N-AS",5.33
same,pIC50,"Homo sapiens, SK-N-FI, read-out: IC50 in cell proliferation assay, cell line SK-N-FI",5.38
same,pIC50,"Homo sapiens, SK-N-MC, read-out: IC50 in cell proliferation assay, cell line SK-N-MC",4.98
same,pIC50,"Homo sapiens, SK-N-SH, read-out: IC50 in cell proliferation assay, cell line SK-N-SH (ALK p.F1174L)",5.78
same,pIC50,"Homo sapiens, SNU-5, read-out: IC50 in cell proliferation assay, cell line SNU-5 (MET amplification)",< 4.50
same,pIC50,"Homo sapiens, SNU-16, read-out: IC50 in cell proliferation assay, cell line SNU-16 (FGFR2 amplification)",6.87
same,pIC50,"Homo sapiens, SNU-C2B, read-out: IC50 in cell proliferation assay, cell line SNU-C2B (EGFR p.R165Q)",4.71
same,pIC50,"Homo sapiens, SU-DHL-1, read-out: IC50 in cell proliferation assay, cell line SU-DHL-1 (NPM1-ALK)",4.94
same,pIC50,"Homo sapiens, SU-DHL-6, read-out: IC50 in cell proliferation assay, cell line SU-DHL-6",5.71
same,pIC50,"Homo sapiens, SUP-T1, read-out: IC50 in cell proliferation assay, cell line SUP-T1",4.51
same,pIC50,"Homo sapiens, SW48, read-out: IC50 in cell proliferation assay, cell line SW48 (EGFR p.G719S)",5.34
same,pIC50,"Homo sapiens, SW480, read-out: IC50 in cell proliferation assay, cell line SW480",4.81
same,pIC50,"Homo sapiens, SW626, read-out: IC50 in cell proliferation assay, cell line SW626",5.02
same,pIC50,"Homo sapiens, SW780, read-out: IC50 in cell proliferation assay, cell line SW780 (FGFR3-BAIAP2L1)",5.85
same,pIC50,"Homo sapiens, SW837, read-out: IC50 in cell proliferation assay, cell line SW837",4.89
same,pIC50,"Homo sapiens, SW872, read-out: IC50 in cell proliferation assay, cell line SW872 (BRAF p.V600E)",5.25
same,pIC50,"Homo sapiens, SW900, read-out: IC50 in cell proliferation assay, cell line SW900",5.29
same,pIC50,"Homo sapiens, SW948, read-out: IC50 in cell proliferation assay, cell line SW948",4.82
same,pIC50,"Homo sapiens, SW982, read-out: IC50 in cell proliferation assay, cell line SW982 (BRAF p.V600E)",5.79
same,pIC50,"Homo sapiens, SW-620, read-out: IC50 in cell proliferation assay, cell line SW620",5.61
same,pIC50,"Homo sapiens, T98G, read-out: IC50 in cell proliferation assay, cell line T98G",6.11
same,pIC50,"Homo sapiens, TCC-SUP, read-out: IC50 in cell proliferation assay, cell line TCCSUP",5.26
same,pIC50,"Homo sapiens, THP-1, read-out: IC50 in cell proliferation assay, cell line THP-1",< 4.50
same,pIC50,"Homo sapiens, U2OS, read-out: IC50 in cell proliferation assay, cell line U2OS",5.57
same,pIC50,"Homo sapiens, U-87 MG, read-out: IC50 in cell proliferation assay, cell line U-87MG ATCC",4.68
same,pIC50,"Homo sapiens, U-118-MG, read-out: IC50 in cell proliferation assay, cell line U-118MG",5.56
same,pIC50,"Homo sapiens, UMUC3, read-out: IC50 in cell proliferation assay, cell line UM-UC-3",5.55
same,pIC50,"Hs766T, read-out: IC50 in cell proliferation assay, Hs 766T cell line",5.48
same,pIC50,"L-82, read-out: IC50 in cell proliferation assay, L-82 cell line (NPM1-ALK)",4.96
same,pIC50,"Rh30, read-out: IC50 in cell proliferation assay, cell line Rh30",5.18
same,pIC50,"read-out: IC50 in cell proliferation assay, 11-18 cell line (EGFR p.L858R)",5.68
same,pIC50,"read-out: IC50 in cell proliferation assay, Hs 852.T cell line",4.97
same,pIC50,"read-out: IC50 in cell proliferation assay, JAR cell line",5.29
same,pIC50,"read-out: IC50 in cell proliferation assay, cell line 5637",5.34
same,pIC50,"read-out: IC50 in cell proliferation assay, cell line A-388",5.68
same,pIC50,"read-out: IC50 in cell proliferation assay, cell line DB",4.88
same,pIC50,"read-out: IC50 in cell proliferation assay, cell line DEL (NPM1-ALK)",4.79
same,pIC50,"read-out: IC50 in cell proliferation assay, cell line ES-2 (BRAF p.V600E)",5.12
same,pIC50,"read-out: IC50 in cell proliferation assay, cell line PA-1",5.35
same,pIC50,"read-out: IC50 in cell proliferation assay, cell line PC-3",5.22
same,pIC50,"read-out: IC50 in cell proliferation assay, cell line RD",4.84
same,pIC50,"read-out: IC50 in cell proliferation assay, cell line RKO (BRAF p.V600E)",4.95
same,pIC50,"read-out: IC50 in cell proliferation assay, cell line RL",5.25
same,pIC50,"read-out: IC50 in cell proliferation assay, cell line RT-4 (FGFR3-TACC3)",6.34
same,pIC50,"read-out: IC50 in cell proliferation assay, cell line SR (NPM1-ALK)",5.09
same,pIC50,"read-out: IC50 in cell proliferation assay, cell line T24",5.18
same,pIC50,"read-out: IC50 in cell proliferation assay, cell line TT (RET p.C634W)",7.26
same,pIC50,"read-out: IC50 in cell proliferation assay, cell line VA-ES-BJ",5.11
